Among the data in patent US20230031406A1, “COMPOUNDS AND COMPOSITIONS FOR TREATING CONDITIONS ASSOCIATED WITH NLRP ACTIVITY” (Novartis AG, priority 2018, published 2023) are IC50 values, retold here.

Like-named read-outs stand apart in the source and are kept apart here.

The assay has as its system PMA-differentiated THP-1 cells. The assay is described as follows: IL-1β production in PMA-differentiated THP-1 cells stimulated with gramicidin (hTHP-1 assay containing 2% fetal bovine serum; Procedures 1 and 2). The class given is cell-based, human. The settings on record: 2% fetal bovine serum. Summed up:
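Secreted IL-1β, read by HTRF, after gramicidin challenge (5 μM, 2 h) of THP-1 cells differentiated with PMA (20 ng/ml, 16-18 h) and plated at 50,000 cells/well in 2% FBS medium. Compounds, 0.0017-100 μM final with 0.37% DMSO, were added 1 h before stimulation.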

The mark [1] stands for this setting: Table B2, class symbols, read-out: hTHP-1 IC50.
Setting [2] is: Homo sapiens, THP-1, Table B3, hTHP-1 assay, class symbols, read-out: IC50.
The mark [3] stands for this setting: Table B1, class symbols, read-out: Average IC50 of compounds in hTHP-1 assay: hTHP-1 IC50.
[4] abbreviates: Table B3, hTHP-1 assay, class symbols, read-out: IC50.
Setting [5] is: Homo sapiens, THP-1, Table B2, class symbols, read-out: hTHP-1 IC50.
[6] abbreviates: Homo sapiens, THP-1, Table B1, numeric bounds, read-out: Average IC50 of compounds in hTHP-1 assay: hTHP-1 IC50.
[7] abbreviates: Table B4, class symbols, read-out: hTHP-1 IC50.
The mark [8] stands for this setting: Homo sapiens, THP-1, Table B1, class symbols, read-out: Average IC50 of compounds in hTHP-1 assay: hTHP-1 IC50.

Turning to `CO[C@H]1COc2c(S(N)(=O)=NC(=O)Nc3c(C)c(C(F)(F)F)nc4c3CCC4)cnn2C1` (single isomer, unassigned) [Example 655, (S) or (R)-(6R)-6-methoxy-N′-((3-methyl-2-(trifluoromethyl)-6,7-dihydro-5H-cyclopenta[b]pyridin-4-yl)carbamoyl)-6,7-dihydro-5H-pyrazolo[5,1-b][1,3] oxazine-3-sulfonimidamide], the IC50 (Homo sapiens, THP-1, Table B3, hTHP-1 assay, numeric values, read-out: IC50) is above 30000 nM.

With `CC(C)(O)c1cc(S(N)(=O)=NC(=O)Nc2c3c(nc4c2CCC4(C)C)CCC3)nn1-c1ccc(F)cc1` (single isomer, unassigned) [Compound 705a, (S) or (R)-N′-((3,3-dimethyl-1,2,3,5,6,7-hexahydrodicyclopenta [b,e]pyridin-8-yl)carbamoyl)-1-(4-fluorophenyl)-5-(2-hydroxypropan-2-yl)-1H-pyrazole-3-sulfonimidamide], under setting [1], the IC50 was 5000 to 30000 nM.

As for `CCc1c(C(F)(F)F)nc2c(c1NC(=O)N=S(N)(=O)c1nn(C(F)F)cc1F)CCC2` (stereo not drawn) [Example 572, 1-(Difluoromethyl)-N′-((3-ethyl-2-(trifluoromethyl)-6,7-dihydro-5H-cyclopenta[b]pyridin-4-yl)calbamoyl)-4-fluoro-1H-pyrazole-3-sulfonimidamide], the 50% inhibitory concentration (IC50) under setting [2] lay within 1000 to 5000 nM.

For `CC(C)(O)c1csc(S(N)(=O)=NC(=O)Nc2c3c(nc4c2CCC4)CCC3)c1` (single isomer, unassigned) [Compound 155a, (R) or (S)-N′-((1,2,3,5,6,7-hexahydrodicyclo-penta[b,e]pyridin-8-yl)carbamoyl)-4-(2-hydroxypropan-2-yl)thiophene-2-sulfonimidamide], under setting [3], the 50% inhibitory concentration (IC50) is 40 to 200 nM.

In the case of `NS(=O)(=NC(=O)Nc1c2c(nc(C3CC3)c1C1CC1)CCC2)c1nn(C(F)F)cc1F` (stereo not drawn) [Example 737, N′-((2,3-dicyclopropyl-6,7-dihydro-5H-cyclopenta[b]pyridin-4-yl)carbamoyl)-1-(difluoromethyl)-4-fluoro-1H-pyrazole-3-sulfonimidamide], the IC50 (Homo sapiens, THP-1, Table B4, class symbols, read-out: hTHP-1 IC50) was 200 to 1000 nM.

As for `CC1(C)CCc2c1nc1c(c2NC(=O)N=S(N)(=O)c2sc(C(O)(CO)CO)nc2CO)CCC1` (stereo not drawn) [Compound 985b], the IC50 under setting [2] lay in the range of 200 to 1000 nM.

`CC(=O)c1csc(S(N)(=O)=NC(=O)Nc2c3c(nc4c2CC[C@H]4C)CCC3)c1` (stereo partly drawn) [Example 627, 4-Acetyl-N′-(((R)-3-methyl-1,2,3,5,6,7-hexahydrodicyclopenta[b,e]pyridin-8-yl)carbamoyl)thiophene-2-sulfonimidamide]: the concentration for half-maximal inhibition (IC50) under setting [2] is 200 to 1000 nM.

In the case of `NS(=O)(=NC(=O)Nc1c2c(nc3c1CCC31CC1)CCC2)c1nn(C(F)F)cc1F` (single isomer, unassigned) [Example 682, (S) or (R)-1-(difluoromethyl)-4-fluoro-N′-((1′,5′,6′,7′-tetrahydro-2′H-spiro[cyclopropane-1,3′-dicyclopenta[b,e]pyridin]-8′-yl)carbamoyl)-1H-pyrazole-3-sulfonimidamide], the concentration for half-maximal inhibition (IC50) under setting [4] was in the range of 1000 to 5000 nM.

Turning to `CC1CCc2c1nc1c(c2NC(=O)N=S(N)(=O)c2cc(C(C)(C)O)cs2)CCC1` (single isomer, unassigned) [Compound 141bb, (S,R) or (S,S)-4-(2-hydroxypropan-2-yl)-N′-((3-methyl-1,2,3,5,6,7-hexahy-drodicyclopenta[b,e]pyridin-8-yl)carbamoyl)thiophene-2-sulfonimidamide], the concentration for half-maximal inhibition (IC50) under setting [3] lay in the range of 5000 to 30000 nM.

`Cc1c(C2(C)CC2)nc2c(c1NC(=O)N=S(N)(=O)c1cnc(C(C)(C)O)s1)CCC2` (stereo not drawn) [Compound 641, 2-(2-Hydroxypropan-2-yl)-N′-((3-methyl-2-(1-methylcyclopropyl)-6,7-dihydro-5H-cyclopenta[b]pyridin-4-yl)carbamoyl)thiazole-5-sulfonimidamide]: the IC50 under setting [5] lay within 5000 to 30000 nM.

As to `Cc1cc(C(C)(C)O)sc1S(N)(=O)=NC(=O)Nc1c2c(nc3c1CCC3)CCC2` (single isomer, unassigned) [Compound 695a, (S) or (R)-N′-((1,2,3,5,6,7-hexahydrodicyclopenta [b,e]pyridin-8-yl)carbamoyl)-5-(2-hydroxypropan-2-yl)-3-methylthiophene-2-sulfonimidamide], under “Homo sapiens, THP-1, Table B2, numeric bounds, read-out: hTHP-1 IC50”, the IC50 was above 30000 nM.

Regarding `CCc1c(C)nc2c(c1NC(=O)N=S(N)(=O)c1cnc(C(C)(C)O)s1)CCC2` (single isomer, unassigned) [Compound 117a, (S) or (R)-N′-((3-ethyl-2-methyl-6,7-dihydro-5H-cyclopenta[b]pyridin-4-yl)carbamoyl)-2-(2-hydroxypropan-2-yl)thiazole-5-sulfonimidamide], the concentration for half-maximal inhibition (IC50) under setting [6] was above 30000 nM.

Turning to `CC1CCc2c1nc1c(c2NC(=O)N=S(N)(=O)c2ccn(C(C)C)n2)CCC1` (single isomer, unassigned) [Compound 129ab, (S,S) or (S,R)-1-isopropyl-N′-((3-methyl-1,2,3,5,6,7-hexa-hydrodicyclo-penta[b,e]pyridin-8-yl)carbamoyl)-1H-pyrazole-3-sulfonimidamide], under setting [6], the IC50 is above 30000 nM.

Consider `CCn1cc(F)c(S(N)(=O)=NC(=O)Nc2c3c(nc4c2CCC4)CCC3)n1` (single isomer, unassigned) [Example 761, (R) or (S)-1-ethyl-4-fluoro-N′-((1,2,3,5,6,7-hexahydrodicyclopenta[b,e]pyridin-8-yl)carbamoyl)-1H-pyrazole-3-sulfonimidamide], for which the 50% inhibitory concentration (IC50) under setting [7] lay within 40 to 200 nM.

Turning to `CC1(C)CCc2c1nc1c(c2NC(=O)N=S(N)(=O)c2cnn3c2OCCC3)CCC1` (stereo not drawn) [Compound 304, N′-((3,3-dimethyl-1,2,3,5,6,7-hexahydrodicyclopenta[b,e]pyridin-8-yl)carbamoyl)-6,7-dihydro-5H-pyrazolo[5,1-b][1,3]oxazine-3-sulfonimidamide], the IC50 under setting [5] was 1000 to 5000 nM.

Consider `NS(=O)(=NC(=O)Nc1c2c(nc(C3CC3)c1C1CC1)CCC2)c1nn(C(F)F)cc1F` (single isomer, unassigned) [Example 763, (R) or (S)-N′-((2,3-dicyclopropyl-6,7-dihydro-5H-cyclopenta[b]pyridin-4-yl)carbamoyl)-1-(difluoromethyl)-4-fluoro-1H-pyrazole-3-sulfonimidamide], for which the IC50 under setting [7] is 200 to 1000 nM.

Consider `CC(C)(O)c1cc(F)c(S(N)(=O)=NC(=O)Nc2c3c(nc4c2CCC42CC2)CCC3)s1` (single isomer, unassigned) [Compound 101b, (R) or (S)-3-fluoro-5-(2-hydroxypropan-2-yl)-N′-((1′,5′,6′,7′-tetrahydro-2′H-spiro[cyclopropane-1,3′-dicyclopenta[b,e]pyridin]-8′-yl)carbamoyl)thiophene-2-sulfonimidamide], for which the half-inhibitory concentration (IC50) under setting [3] fell in the range of 8 to 40 nM.

On to `CCn1cc(F)c(S(N)(=O)=NC(=O)Nc2c3c(nc4c2CC[C@H]4C)CCC3)n1` (single isomer, unassigned) [Example 669, (R) or (S)-1-ethyl-4-fluoro-N′-(((R)-3-methyl-1,2,3,5,6,7-hexahydrodicyclopenta[b,e]pyridin-8-yl)carbamoyl)-1H-pyrazole-3-sulfonimidamide], for which the IC50 under setting [4] was in the range of 8 to 40 nM.

With `CC(C)(O)c1cc(F)c(S(N)(=O)=NC(=O)Nc2c3c(nc4c2CCC4(C)C)CCC3)s1` (single isomer, unassigned) [Compound 102b, (R) or (S)-N′-((3,3-dimethyl-1,2,3,5,6,7-hexahydro-dicyclopenta[b,e]pyridin-8-yl)carbamoyl)-3-fluoro-5-(2-hydroxy-propan-2-yl)thiophene-2-sulfonimidamide], under setting [3], the 50% inhibitory concentration (IC50) lay within 8 to 40 nM.

As for `CC1(C)CCc2c1nc1c(c2NC(=O)N=S(N)(=O)c2cnc(C(C)(O)CO)s2)CCC1` (single isomer, unassigned) [Compound 201e, (R, R) and (S, R) or (R, S) and (S, S)-2-(1,2-Dihydroxypropan-2-yl)-N′-((3,3-dimethyl-1,2,3.5.6.7-hexahydrodicyclopenta [b,e]pyridin-8-yl)carbamoyl)thiazole-5-sulfonimidamide], the IC50 under setting [1] lay in the range of 40 to 200 nM.

Consider `COCc1nc(C(C)(C)O)sc1S(N)(=O)=NC(=O)Nc1c2c(nc3c1CCC3(C)C)CCC2` (stereo not drawn) [Compound 170, N′-((3,3-dimethyl-1,2,3,5,6,7-hexahydrodicyclopenta[b,e]pyridin-8-yl)carbamoyl)-2-(2-hydroxypropan-2-yl)-4-(methoxymethyl)thiazole-5-sulfonimidamide], for which, under setting [8], the IC50 lay in the range of 1000 to 5000 nM.

Regarding `Cn1nc(S(N)(=O)=NC(=O)Nc2c3c(nc4c2CCC4)CCC3)cc1C(C)(C)O` (single isomer, unassigned) [Compound 158a, (R) or (S)-N′-((1,2,3,5,6,7-hexahydrodicyclo-penta[b,e]pyridin-8-yl)carbamoyl)-5-(2-hydroxypropan-2-yl)-1-methyl-1H-pyrazole-3-sulfonimidamide], the half-maximal inhibitory concentration (IC50) under setting [8] lay within 1000 to 5000 nM.

`CC1CCc2c1nc1c(c2NC(=O)N=S(N)(=O)c2cn(C(C)C)cn2)CCC1` (stereo not drawn) [Compound 660, 1-Isopropyl-N′-((3-methyl-1,2,3,5,6,7-hexahydrodicyclopenta[b,e]pyridin-8-yl)carbamoyl)-1H-imidazole-4-sulfonimidamide]: under setting [1], the IC50 lay in the range of 5000 to 30000 nM.

On to `Cc1cn(C(C)C)nc1S(N)(=O)=NC(=O)Nc1c2c(nc3c1CCC3)CCC2` (stereo not drawn) [Compound 687, N′-((1,2,3,5,6,7-hexahydrodicyclopenta[b,e]pyridin-8-yl)carbamoyl)-1-isopropyl-4-methyl-1H-pyrazole-3-sulfonimidamide], for which the IC50 under setting [5] is 5000 to 30000 nM.

Broadly, the IC50 is the concentration at which inhibition is half-maximal.
